# Results taken from patent US7638343B2, “Method to identify or evaluate compounds useful in the field of fragrances and aromas” (priority 2004, dated 2009).
# Assays:
# human respiratory tract [1] = assay: Metabospace: real-time APCI-MS analysis of exhaled breath after inhalation of saturated headspace of test compound; format: in vivo; conditions: for decrease of mass chromatogram signal intensity as a function of inhalation/exhalation cycles (release in exhaled breath): after nasal inhalation of the substrate, about 30 inhalation/exhalation cycles
# Method: The “Metabospace” technology allows real-time detection and analysis of in vivo generated metabolites (exhaled volatiles) starting from compounds of interest. First, a test subject inhales the saturated headspace of a volatile compound. The saturated headspace may be provided as described in the examples herein-below. The breath is exhaled directly into a glass funnel, which works as interface to an analysis device where mass spectra are recorded by a quadrupole mass spectrometer equipped with an atmospheric pressure chemical ionization (APCI) ion source with a modified interface which allows the measurement of fast dynamic changes of volatiles as described in Grab, W., and Gfeller, H. In: ACS Symposium Series 763—Flavor Release (Roberts, D. D., and Taylor, A. J., Eds.) American Chemical Society, Washington, D.C. (2002). The procedure may be performed for example as described further in the examples herein below.
# Mass spectrum scans detect the entire range of pseudomolecular ions as well as ions of fragments of molecules. If candidate metabolites are already known, e.g. from in vitro data, the mass chromatogram corresponding to the pseudomolecular ion can be directly visualized together with the chromatogram for the substrate. Acetone is always present in human breath and can be used to show the respiration pattern. Mass spectrum scans of volatiles either exhaled from the nasal or the oral cavity are recorded in narrow time spans, for example twice per second, to follow changes in breath composition as a function of time and respiration cycles. Usually, a series of scans are done to detect other ions that may be linked to the substrate and/or metabolites, which can e.g. be derived from fragments of the substrate and/or the metabolites, as is well-known to the person skilled in the art. Various mass spectrum scans are performed as is well known in the art. In the present invention, a large number of mass spectrum scans are be recorded by the mass spectrometer (for example 2 scans per second). The total ion chromatogram (TIC) gives the total of signals. Individual signals, e.g. the pseudomolecular ion [M+H]^+ for acetone at m/z 59, may be singled out and analysed over time in so-called “mass chromatograms”. Metabolites appear as additional signals in scans, and specific signals are followed over time in respective mass chromatograms. During the first inhalation/exhalation cycles, scans are analysed for ions which are present in exhalations following the inhalation of surrounding air (blank, background) and are not derived from the test compound or from metabolites. It is well known in the art how to identify unknown signals. Depending on the chemistry of the test compound and the possible metabolic reactions which can take place, particular ions are expected to occur if such metabolism takes place. To narrow down the possibilities, a hypothesis based on the test compound (enzyme substrate) and potential biotransformation reactions resulting in metabolites is used. For example, metabolites that result from reactions of the test compound with oxidizing enzymes belonging to the group of CYP enzymes may undergo metabolism including hydroxylation or epoxidation reactions, and specific signals for such metabolites may be generally found at the m/z number of the substrate plus 16. […]
# human respiratory tract [2] = assay: Metabo-GM: exhaled breath trapped on Tenax TA resin, thermodesorption, GC-MS; format: in vivo
# [3] = biological target: T1, nasal metabolic enzyme CYP2A13 (Homo sapiens, UniProt Q16696); assay: Metabospace with volatile suppressor inhaled immediately prior to test compound; format: in vivo; conditions: suppressor (inhibitor of CYP2A13) inhaled immediately prior to test compound; compared with runs without suppressor
# T1 construct: from tissue; host or cells: nasal cavity / respiratory tract of a living test subject
# T1 sequence (Q16696 1-494): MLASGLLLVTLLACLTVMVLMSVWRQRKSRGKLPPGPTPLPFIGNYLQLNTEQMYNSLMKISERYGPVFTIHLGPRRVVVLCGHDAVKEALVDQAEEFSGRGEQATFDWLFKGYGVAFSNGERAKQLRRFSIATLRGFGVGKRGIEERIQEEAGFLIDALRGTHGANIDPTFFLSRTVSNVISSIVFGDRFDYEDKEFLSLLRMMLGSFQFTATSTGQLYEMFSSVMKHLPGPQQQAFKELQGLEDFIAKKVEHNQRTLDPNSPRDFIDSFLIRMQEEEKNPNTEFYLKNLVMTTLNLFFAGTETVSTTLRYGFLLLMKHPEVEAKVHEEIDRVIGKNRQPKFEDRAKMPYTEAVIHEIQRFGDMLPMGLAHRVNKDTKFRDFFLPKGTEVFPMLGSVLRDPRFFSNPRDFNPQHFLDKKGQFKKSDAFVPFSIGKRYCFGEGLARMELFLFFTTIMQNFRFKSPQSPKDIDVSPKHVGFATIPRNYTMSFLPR
# Method: A volatile suppressor compound (inhibitor of nasal metabolic enzyme CYP2A13) is inhaled immediately prior to the inhalation of the test compound 2-methoxyacetophenone.
# The test subject performs three runs in a row: (1) test compound only; (2) suppressor followed by test compound; (3) test compound only. Before and between runs, blank controls are recorded (inhalation of room air and recording of 30 inhalation/exhalation cycles).
# The procedure is performed as described in example 6A, however, as a test compound ketanone is used and ketanone and its metabolite 4-(4-hydroxyphenyl)butan-2-one (raspberry ketone) are detected as described in example 5.
# olfactory perception = conditions: cited from earlier work; for olfactory threshold / odour intensity: raspberry aroma, Winter (1961) Helv. Chim. Acta 44:2110
# carboxyl esterase = assay: Metabo-GM with inhibitor of carboxyl esterase as suppressor inhaled before test compound; format: in vivo, human; conditions: for proportion of detected metabolite with suppressor compared to analysis without suppressor: carboxyl esterase inhibitor inhaled first, then test compound; for metabolite detected in exhaled breath by GC-MS: without suppressor
# Method: The procedure is performed as described in examples 7 and 10 subject to the following modifications:
# As suppressor, an inhibitor for carboxyl esterase is used. As test compound, phenethylacetate is used, which is a substrate for carboxyl esterase.
# The procedure is performed as described in example 12A with an inhibitor for carboxyl esterase as suppressor, subject to the following modifications:
# As test compound, styrallylacetate is used, which is a substrate for carboxyl esterase.
# carboxyl esterases = assay: Cascade Olfactometer: perceived odour intensity and olfactory threshold of odorant with modulator (inhibitor of carboxyl esterases); format: in vivo, human
# Method: A modulator is identified using an Olfactometer. As reference test compounds, odorant esters are used. A second test compound (potential modulator, modulator test compound) is tested in combination with these odorant test compounds. The odorant reference test compound is kept at a constant concentration with the modulator concentration being varied.
# If metabolism is taking place, the amount of styrallylacetate which is stimulating the olfactory system is decreased.
# A standard concentration (appropriate dilution of saturated headspace) of the odorant test compound is provided in one Olfactometer (cascade 1) as the reference, while in the second olfactometer (cascade 2) the odorant test compound is provided at the standard concentration supplemented with various concentrations of the modulator (appropriate dilutions of saturated headspace).
# First, the threshold for the odorant styrallylacetate is determined for each test subject. The standard concentration is chosen so that it is perceived to be of week to moderate intensity as judged by each test subject.
# The concentrations of the modulator test compound are chosen to be below the olfactory threshold of the test subject.
# A sample is provided as headspace in a saturation chamber. The flow from said chamber is added to a carrier gas supply and mixed in a chamber which is connected with the sniffing port where a test subject detects the stimulus. Said flow (the headspace of the sample before addition to the carrier) is determined and adjusted so that the test subject rates said flow as medium intensity. This is the reference that is used in cascade 1. For styrallylacetate, a flow of 20 ml/min of the odorant is used. […]
# The effect of the modulator on the olfactory threshold of styrallylacetate is determined in as follows. […]
# Alternatively, a dose response curve is recorded using one olfactometer (Cascade 2) by providing samples above and below the detected olfactory threshold of the test subjects. This is compared to the known threshold of the compound which is recorded beforehand. […]
# [4] = inhalation and exhalation both through the mouth
SMILES,decrease of mass chromatogram signal intensity as a function of inhalation/exhalation cycles (release in exhaled breath) (human respiratory tract [1]),amount of metabolite detected in exhaled breath by GC-MS (human respiratory tract [2]; [4]),metabolite signal in exhaled breath in presence of suppressor [3],olfactory threshold / odour intensity (olfactory perception),proportion of detected metabolite with suppressor compared to analysis without suppressor (carboxyl esterase),metabolite detected in exhaled breath by GC-MS (carboxyl esterase),further results
O=C(CO)c1ccccc1 [2-hydroxyacetophenone],still near maximal intensity after 30 inhalation/exhalation recordings,,,,,,
COCC(=O)c1ccccc1 [2-methoxyacetophenone],"decreases relatively quickly, within about 30 inhalation/exhalation cycles",only in a small amount barely detectable,considerably less metabolite is formed in presence of the suppressor,,,,"amount of metabolite detected in exhaled breath by GC-MS (human respiratory tract [2]; inhalation through the mouth, exhalation through the nose): significantly more metabolite is detected; metabolite signal in exhaled breath (human respiratory tract [1]; first variant: inhalation and exhalation both through the mouth): no signal corresponding to the metabolite is detected"
CC(=O)CCc1ccc(O)cc1 [4-(4-hydroxyphenyl)butan-2-one],,,,very low olfactory threshold,,,
COc1ccc(CCC(C)=O)cc1 [ketanone],retarded release of the more hydrophilic metabolite is observed,,significantly decreased signal intensity for the metabolite,significantly less intense,,,"metabolite detected in exhaled breath (mass chromatogram signal) (human respiratory tract [1]; inhalation and exhalation through the nose, human test subject): a compound is detected at m/z 165 which corresponds to 4(4-hydroxyphenyl)butan-2-one (raspberry ketone)"
CC(=O)OCCc1ccccc1 [phenethylacetate],,,,,about 50%,phenethylalcohol is detected,
CC(=O)OC(C)c1ccccc1 (stereo not drawn) [styrallylacetate],,Less styrallylalcohol (metabolite) is detected,,,significantly lower,styrallylalcohol is detected,"metabolite detected in exhaled breath by GC-MS (human respiratory tract [2]; inhalation and exhalation through the nose): Significant amounts of styrallylalcohol and acetic acid (metabolites) are detected; olfactory threshold relative to its metabolite (olfactory perception; compared with styrallylalcohol): lower threshold than its metabolite styrallylalcohol; olfactory threshold combined with modulator versus odorant alone (carboxyl esterases; dose response curve, one olfactometer, modulator constant): lower than the determined olfactory threshold for styrallylacetate alone; perceived intensity of the odorant in presence of the potential modulator (carboxyl esterases; odorant flow 20 ml/min constant, modulator flow varied 1 to 900 ml/min, below its olfactory threshold, versus reference without modulator): intensity of the odorant is increased; odour intensity in presence of modulator versus reference (JND protocol) (carboxyl esterases; styrallylacetate 20 ml/min in both cascades, modulator 5 ml/min in cascade 2): stronger than the reference concentration"
